Measured values reported in patent US20070004760A1, “Fungicide mixtures for the control of rice pathogens” (priority 2003, published 2007).
Where “and” joins values, the source holds several entries; their conditions need not be identical. Equal entries are not always repeated. Where two headings read alike, the source gives them in different places.

Key:
Pyricularia oryzae = type: in vivo; settings: individual active compound, rice 'Tai-Nong 67', protective, 6 days, untreated control 60% infection
Cochliobolus miyabeanus = assay: Activity against brown spot of rice caused by Cochliobolus miyabeanus, protective application; type: in vivo

Compound: C[C@H](Nc1c(-c2c(F)cc(F)cc2F)c(Cl)nc2ncnn12)C(F)(F)F [Comparison B]
- Efficacy in % of the untreated control (Pyricularia oryzae; 16 ppm in the spray liquor): 67%

Compound: CC1CCN(c2c(-c3c(F)cc(F)cc3F)c(Cl)nc3ncnn23)CC1 [I, 5-chloro-7-(4-methylpiperidin-1-yl)-6-(2,4,6-trifluorophenyl)-[1,2,4]triazolo[1,5-a]pyrimidine]
- Efficacy in % of the untreated control (Cochliobolus miyabeanus; individual active compound, 4 ppm in the spray liquor, rice 'Tai-Nong 67', protective, six days, untreated control 90% infection): 33%
- Efficacy in % of the untreated control (Cochliobolus miyabeanus; individual active compound, 16 ppm in the spray liquor, rice 'Tai-Nong 67', protective, six days, untreated control 90% infection): 33% and 56%
- Efficacy in % of the untreated control (Pyricularia oryzae; 16 ppm in the spray liquor): 67%

Compound: CC1CCN(c2c(-c3c(F)cccc3Cl)c(Cl)nc3ncnn23)CC1 [Comparison A]
- Efficacy in % of the untreated control (Pyricularia oryzae; 16 ppm in the spray liquor): 59%

Compound: CO/N=C(/C(=O)OC)c1ccccc1CO/N=C(\C)c1cccc(C(F)(F)F)c1 [II (trifloxystrobin), methyl (E)-methoxyimino-{(E)-α-[1-(α,α,α-trifluoro-m-tolyl)ethylideneaminooxy]o-tolyl}acetate]
- Efficacy in % of the untreated control (Cochliobolus miyabeanus; in vivo): 0%
- Efficacy in % of the untreated control (Pyricularia oryzae; 4 ppm in the spray liquor): 2%
- Efficacy in % of the untreated control (Pyricularia oryzae; 16 ppm in the spray liquor): 2%
